Active and inactive are the calls of the source.
What was measured:
[1] = molecular target: T1, Runt-related transcription factor 1/Core-binding factor subunit beta (Homo sapiens, UniProt Q01196+Q13951); assay: inhibitors of RUNX1 Runt–CBFb-SMMHC binding, primary screen, biochemical, FRET, Cerulean-Runt, Venus-CBFb-SMMHC, uHTS (AID 1434); format: protein assay;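 also: partner is the CBFb-SMMHC leukemia fusion protein rather than wild-type CBFb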
[2] = molecular target: T1, Runt-related transcription factor 1/Core-binding factor subunit beta; assay: inhibitors of RUNX1 Runt–CBFb-SMMHC binding, biochemical, TR-FRET (AID 1438); format: protein assay
[3] = molecular target: E3 ubiquitin-protein ligase XIAP (Homo sapiens, UniProt P98170); assay: Counter Screen using XIAP-Bir3 for Chemical Antagonists of Bir1/2 domains of IAP-family anti-apoptotic proteins. [Related pubchem assays (depositor defined):AID1018, AID1449, AID1514, AID1638, AID1749, AID1750, AID488957, AID488963]
Bcl-2-related protein A1 = Bcl-2-related protein A1 (Mus musculus, UniProt Q07440); format: functional;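 also: confirmatory dose–response counterscreen on Bfl-1, used to check hits from a UBC13 polyubiquitin inhibitor campaign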
[4] = molecular target: T2, Ubiquitin-conjugating enzyme E2 N (Homo sapiens, UniProt P61088); format: functional
T2 sequence (P61088 whole entry): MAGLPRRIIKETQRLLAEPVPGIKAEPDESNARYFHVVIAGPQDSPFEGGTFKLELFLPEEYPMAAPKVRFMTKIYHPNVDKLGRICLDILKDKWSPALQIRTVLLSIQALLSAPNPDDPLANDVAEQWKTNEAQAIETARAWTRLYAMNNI

[5] = molecular target: T3, Short transient receptor potential channel 4 (Mus musculus, UniProt Q9QUQ5); assay: mouse TRPC4 channel activators, dose response, cell-based, HEK293 TRPC4/mu-opioid, Fluo-4 calcium (AID 434937); format: functional
T3 sequence (Q9QUQ5 whole entry): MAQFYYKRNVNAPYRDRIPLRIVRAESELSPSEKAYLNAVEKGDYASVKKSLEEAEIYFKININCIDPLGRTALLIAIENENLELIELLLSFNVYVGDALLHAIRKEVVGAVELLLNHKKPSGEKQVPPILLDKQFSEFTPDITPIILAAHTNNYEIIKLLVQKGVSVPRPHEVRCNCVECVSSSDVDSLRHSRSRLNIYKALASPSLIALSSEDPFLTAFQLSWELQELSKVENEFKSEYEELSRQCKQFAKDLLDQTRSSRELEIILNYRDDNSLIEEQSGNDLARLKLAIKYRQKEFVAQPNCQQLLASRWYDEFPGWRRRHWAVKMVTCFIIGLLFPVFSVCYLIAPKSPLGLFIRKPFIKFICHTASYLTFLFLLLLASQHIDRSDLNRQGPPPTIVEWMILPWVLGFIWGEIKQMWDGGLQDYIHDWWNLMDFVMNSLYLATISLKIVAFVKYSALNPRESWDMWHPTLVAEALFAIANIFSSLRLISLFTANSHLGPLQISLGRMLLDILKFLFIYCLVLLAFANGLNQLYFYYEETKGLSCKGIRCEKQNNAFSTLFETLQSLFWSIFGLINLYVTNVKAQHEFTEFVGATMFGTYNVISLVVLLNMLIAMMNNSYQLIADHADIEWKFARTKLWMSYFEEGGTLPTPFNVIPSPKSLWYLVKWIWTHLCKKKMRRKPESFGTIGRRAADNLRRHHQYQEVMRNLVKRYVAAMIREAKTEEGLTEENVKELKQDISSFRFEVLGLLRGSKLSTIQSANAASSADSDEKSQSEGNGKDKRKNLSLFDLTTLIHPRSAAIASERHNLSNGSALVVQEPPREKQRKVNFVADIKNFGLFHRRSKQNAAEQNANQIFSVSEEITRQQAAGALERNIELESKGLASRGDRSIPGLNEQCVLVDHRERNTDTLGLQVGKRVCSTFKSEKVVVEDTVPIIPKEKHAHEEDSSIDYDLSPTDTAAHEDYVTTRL

[6] = molecular target: T2, Ubiquitin-conjugating enzyme E2 N; format: functional; remark: listed apart in the source
Nonstructural protein 1 = Nonstructural protein 1 (Influenza A virus, UniProt Q194T2); format: functional, Influenza A virus (A/California/07/2009(H1N1))
[7] = molecular target: Type-1 angiotensin II receptor (Homo sapiens, UniProt P30556); assay: AT1 receptor agonists, dose response, selectivity assay for APJ receptor agonist project, cell-based, uHTS hits (AID 488865); format: functional;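 also: beta-arrestin recruitment to AT1 measured by enzyme fragment complementation luminescence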
[8] = molecular target: T4, Delta-type opioid receptor (Homo sapiens, UniProt P41143); assay: Counterscreen for agonists of heterodimerization of the mu 1 (OPRM1) and delta 1 (OPRD1) opioid receptors: Luminescence-based cell-based high throughput dose response assay to identify agonists of OPRD1 homodimerization. [Related pubchem assays (depositor defined):AID504326, AID504355, AID504692, AID504904, AID504905]; format: functional
Mu-type opioid receptor [9] = molecular target: T5, Mu-type opioid receptor (Homo sapiens, UniProt P35372); assay: Counterscreen for agonists of heterodimerization of the mu 1 (OPRM1) and delta 1 (OPRD1) opioid receptors: Luminescence-based cell-based high throughput dose response assay to identify agonists of OPRM1 homodimerization.; format: functional
[10] = molecular target: 5-hydroxytryptamine receptor 5A (Homo sapiens, UniProt P47898); assay: Counterscreen for agonists of OPRM1-OPRD1 heterodimerization: luminescence-based cell-based high throughput dose response assay to identify agonists of 5-hydroxytryptamine (serotonin) 5A receptor (HTR5A). [Related pubchem assays (depositor defined):AID504326, AID504355, AID504692, AID504904, AID504905]; format: functional
INS1 = assay: beta cell apoptosis inhibitors, cytokine rescue, dose response, luminescence, retest (AID 449756); format: functional, cell-based; conditions: Rattus norvegicus;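 also: cell death triggered by IL-1 beta plus TNF-alpha plus IFN-gamma mixture; protective hits raise ATP signal compared with cytokine alone wells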
Troponin, cardiac muscle = Troponin, cardiac muscle (Homo sapiens, UniProt P19429+P45379+P63316); assay: Fluorescence-based biochemical high throughput dose response assay for activators of the calcium sensitivity of cardiac Regulated Thin Filaments (RTF). [Related pubchem assays (depositor defined):AID493008, AID493018, AID504382, AID504383]; format: protein-complex assay
[11] = molecular target: T6, Tyrosine-protein phosphatase non-receptor type 7 (Homo sapiens, UniProt P35236); assay: redox-dependent HePTP inhibition, mechanism study, biochemical, fluorescence (AID 2068); format: functional
T6 sequence (P35236 whole entry): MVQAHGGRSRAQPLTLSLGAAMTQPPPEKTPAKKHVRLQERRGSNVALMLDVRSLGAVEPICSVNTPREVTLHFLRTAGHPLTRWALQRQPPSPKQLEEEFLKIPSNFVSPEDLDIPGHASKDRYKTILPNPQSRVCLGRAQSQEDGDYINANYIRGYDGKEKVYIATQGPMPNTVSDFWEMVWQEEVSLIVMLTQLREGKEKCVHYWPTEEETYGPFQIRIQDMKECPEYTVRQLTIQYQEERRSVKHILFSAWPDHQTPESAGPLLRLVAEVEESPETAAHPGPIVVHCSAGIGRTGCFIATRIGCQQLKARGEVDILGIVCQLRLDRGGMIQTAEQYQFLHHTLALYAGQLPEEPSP

Mu-type opioid receptor [12] = molecular target: T5, Mu-type opioid receptor; assay: SAR Analysis of Antagonists of the MOR Receptor using an Image-Based Assay - Set 3. [Related pubchem assays (depositor defined):AID1777, AID1785, AID1786, AID1966, AID2133, AID2136, AID2284, AID2285, AID2420]; format: functional
[13] = molecular target: T4, Delta-type opioid receptor; assay: SAR Analysis of Antagonists of the DOR Receptor using an Image-Based Assay - Set 3. [Related pubchem assays (depositor defined):AID1777, AID1785]; format: functional
[14] = molecular target: T7, Kappa-type opioid receptor (Homo sapiens, UniProt P41145); assay: SAR analysis of small molecule antagonists of the kappa opioid receptor via a luminescent beta-arrestin assay - Set 3. [Related pubchem assays (depositor defined):AID1777, AID1778, AID1785, AID1786, AID1966, AID2133, AID2136, AID2285, AID2495]; format: functional
[15] = molecular target: T7, Kappa-type opioid receptor; assay: SAR analysis of Antagonists of the Kappa Opioid Receptor (KOR) using an Image-Based Assay - Set 3. [Related pubchem assays (depositor defined):AID1777, AID1785]; format: functional

With `O=C(NCc1ccccn1)c1cc2c(ccc3ccccc32)oc1=O` the IC50 [1] was 1.33 µM (active) and the IC50 [2] was > 100 µM (inactive).
For `CC(C)(C)c1ccc(C(CC(=O)O)NC(=O)Cc2ccc(F)cc2)cc1` (centres undefined), the IC50 [3] was > 20 µM (inactive).
In the case of `Cc1ccc2nc(N(CCCN(C)C)C(=O)c3ccc(S(=O)(=O)N4CCc5ccccc5C4)cc3)sc2c1`, the IC50 (Bcl-2-related protein A1) was > 20 µM (inactive), the IC50 [4] was 11 µM (active) and the EC50 [5] was 3.35 µM (active). For the same compound, the IC50 [6] was 7.23 µM (active), the IC50 (Nonstructural protein 1) was > 50 µM (active) and the EC50 [7] was 57.8 µM (inactive). The EC50 [8] was > 92.5 µM (inactive), the EC50 (Mu-type opioid receptor [9]) was 10.2 µM (inactive) and the EC50 [10] was > 92.5 µM (inactive). For the same compound, the AC50 (INS1) was 6.05 µM (active).
With `Cc1ccc(C)c(N2CCN(C(=O)CN3C(S)=NC(C)(C)CC3C)CC2)c1` (centres undefined) the EC50 (Troponin, cardiac muscle) was > 71.5 µM (inactive).
With `O=C(NCc1ccco1)Nc1ccc2nc(-c3ccco3)c(-c3ccco3)nc2c1` the IC50 [11] was > 50 µM (inactive).
In the case of `O=C(NCCN(Cc1ccccc1)Cc1ccccc1)c1ccc(CNS(=O)(=O)c2ccc(Br)cc2)cc1`, the IC50 (Mu-type opioid receptor [12]) was > 32 µM (inactive), the IC50 [13] was > 32 µM (inactive) and the IC50 [14] was > 20 µM (inactive). For the same compound, the IC50 [15] was 6.08 µM (active).
